Experimental data as given in PubChem BioAssay (NCI).
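The concentration for 50% growth inhibition is given as GI50. At the TGI there is no net growth.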

How the values were obtained:
Assay in all cases: NCI anticancer screen, dose series, 384-well format
786-0 renal = system: 786-0 renal
A498 renal = system: A498 renal
A549 NSCLC = system: A549 NSCLC
ACHN renal = system: ACHN renal
BT-549 breast = system: BT-549 breast
CAKI-1 renal = system: CAKI-1 renal
CCRF-CEM leukemia = system: CCRF-CEM leukemia
COLO 205 colon = system: COLO 205 colon
DU-145 prostate = system: DU-145 prostate
EKVX NSCLC = system: EKVX NSCLC
HCC-2998 colon = system: HCC-2998 colon
HCT-116 colon = system: HCT-116 colon
HCT-15 colon = system: HCT-15 colon
HL-60(TB) leukemia = system: HL-60(TB) leukemia
HOP-62 NSCLC = system: HOP-62 NSCLC
HOP-92 NSCLC = system: HOP-92 NSCLC
HS 578T breast = system: HS 578T breast
HT29 colon = system: HT29 colon
IGROV1 ovarian = system: IGROV1 ovarian
K-562 leukemia = system: K-562 leukemia
KM12 colon = system: KM12 colon
LOX IMVI melanoma = system: LOX IMVI melanoma
M14 melanoma = system: M14 melanoma
MALME-3M melanoma = system: MALME-3M melanoma
MCF7 breast = system: MCF7 breast
MDA-MB-231 breast = system: MDA-MB-231 breast
MDA-MB-435 melanoma = system: MDA-MB-435 melanoma
MDA-MB-468 breast = system: MDA-MB-468 breast
MOLT-4 leukemia = system: MOLT-4 leukemia
NCI-H226 lung = system: NCI-H226 lung
NCI-H23 lung = system: NCI-H23 lung
NCI-H322M lung = system: NCI-H322M lung
NCI-H460 NSCLC = system: NCI-H460 NSCLC
NCI-H522 lung = system: NCI-H522 lung
NCI/ADR-RES ovarian = system: NCI/ADR-RES ovarian
OVCAR-3 ovarian = system: OVCAR-3 ovarian
OVCAR-4 ovarian = system: OVCAR-4 ovarian
OVCAR-5 ovarian = system: OVCAR-5 ovarian
OVCAR-8 ovarian = system: OVCAR-8 ovarian
PC-3 prostate = system: PC-3 prostate
RPMI-8226 leukemia = system: RPMI-8226 leukemia
RXF 393 renal = system: RXF 393 renal
SF-268 CNS = system: SF-268 CNS
SF-295 CNS = system: SF-295 CNS
SF-539 CNS = system: SF-539 CNS
SK-MEL-28 melanoma = system: SK-MEL-28 melanoma
SK-MEL-5 melanoma = system: SK-MEL-5 melanoma
SK-OV-3 ovarian = system: SK-OV-3 ovarian
SN12C renal = system: SN12C renal
SNB-19 CNS = system: SNB-19 CNS
SNB-75 CNS = system: SNB-75 CNS
SW-620 colon = system: SW-620 colon
T-47D breast = system: T-47D breast
TK-10 renal = system: TK-10 renal
U251 glioblastoma = system: U251 glioblastoma
UACC-257 melanoma = system: UACC-257 melanoma
UACC-62 melanoma = system: UACC-62 melanoma
UO-31 renal = system: UO-31 renal

In the case of COc1ccc(Oc2cc(NCCC(F)(F)F)c3ncc(-c4ccc(C(=O)NC5CC5)c(C)c4)n3n2)c(F)c1F, the GI50 ([…]-0 renal) was < 0.01 µM, the TGI (786-0 renal) was 14.3 µM and the GI50 (A498 renal) was 0.189 µM. For the same molecule, the TGI (A498 renal) was 7.86 µM, the GI50 (A549 NSCLC) was < 0.01 µM and the TGI (A549 NSCLC) was 18.4 µM. For the same molecule, the GI50 (ACHN renal) was 0.169 µM, the TGI (ACHN renal) was 26.9 µM and the GI50 (BT-549 breast) was 0.256 µM. It also gave a TGI (BT-549 breast) of 17 µM, a GI50 (CAKI-1 renal) of 0.208 µM and a TGI (CAKI-1 renal) of 2.48 µM. For the same molecule, the GI50 (CCRF-CEM leukemia) was < 0.01 µM, the TGI (CCRF-CEM leukemia) was < 0.01 µM and the GI50 (COLO 205 colon) was < 0.01 µM. For the same molecule, the TGI (COLO 205 colon) was > 100 µM, the GI50 (DU-145 prostate) was < 0.01 µM and the TGI (DU-145 prostate) was > 100 µM. It also gave a GI50 (EKVX NSCLC) of 5.88 µM, a TGI (EKVX NSCLC) of 84.2 µM and a GI50 (HCC-2998 colon) of 13.1 µM. The TGI (HCC-2998 colon) was > 100 µM, the GI50 (HCT-116 colon) was < 0.01 µM and the TGI (HCT-116 colon) was > 100 µM. For the same molecule, the GI50 (HCT-15 colon) was < 0.01 µM, the TGI (HCT-15 colon) was 12.2 µM and the GI50 (HL-60(TB) leukemia) was < 0.01 µM. The TGI (HL-60(TB) leukemia) was < 0.01 µM, the GI50 (HOP-62 NSCLC) was < 0.01 µM and the TGI (HOP-62 NSCLC) was 4.93 µM. The GI50 (HOP-92 NSCLC) was 1.16 µM, the TGI (HOP-92 NSCLC) was 14.5 µM and the GI50 (HS 578T breast) was 0.0204 µM. For the same molecule, the TGI (HS 578T breast) was 2.32 µM, the GI50 (HT29 colon) was < 0.01 µM and the TGI (HT29 colon) was > 100 µM. For the same molecule, the GI50 (IGROV1 ovarian) was 0.337 µM, the TGI (IGROV1 ovarian) was 46.4 µM and the GI50 (K-562 leukemia) was 0.264 µM. The TGI (K-562 leukemia) was > 100 µM, the GI50 (KM12 colon) was 0.271 µM and the TGI (KM12 colon) was > 100 µM. For the same molecule, the GI50 (LOX IMVI melanoma) was < 0.01 µM, the TGI (LOX IMVI melanoma) was 11.5 µM and the GI50 (M14 melanoma) was 0.0101 µM. For the same molecule, the TGI (M14 melanoma) was 15.2 µM, the GI50 (MALME-3M melanoma) was 0.182 µM and the TGI (MALME-3M melanoma) was 26.7 µM. The GI50 (MCF7 breast) was 1.75 µM, the TGI (MCF7 breast) was 85 µM and the GI50 (MDA-MB-231 breast) was 0.365 µM. It also gave a TGI (MDA-MB-231 breast) of 30.1 µM, a GI50 (MDA-MB-435 melanoma) of 0.286 µM and a TGI (MDA-MB-435 melanoma) of 70 µM. The GI50 (MDA-MB-468 breast) was < 0.01 µM, the TGI (MDA-MB-468 breast) was 3.47 µM and the GI50 (MOLT-4 leukemia) was < 0.01 µM. The TGI (MOLT-4 leukemia) was < 0.01 µM, the GI50 (NCI-H226 lung) was 4.83 µM and the TGI (NCI-H226 lung) was 54.4 µM. For the same molecule, the GI50 (NCI-H23 lung) was < 0.01 µM, the TGI (NCI-H23 lung) was 29.6 µM and the GI50 (NCI-H322M lung) was 2.14 µM. The TGI (NCI-H322M lung) was > 100 µM, the GI50 (NCI-H460 NSCLC) was < 0.01 µM and the TGI (NCI-H460 NSCLC) was 1.17 µM. For the same molecule, the GI50 (NCI-H522 lung) was 0.682 µM, the TGI (NCI-H522 lung) was 14.3 µM and the GI50 (NCI/ADR-RES ovarian) was < 0.01 µM. It also gave a TGI (NCI/ADR-RES ovarian) of 0.568 µM, a GI50 (OVCAR-3 ovarian) of 0.365 µM and a TGI (OVCAR-3 ovarian) of 17.5 µM. It also gave a GI50 (OVCAR-4 ovarian) of 13.9 µM, a TGI (OVCAR-4 ovarian) of 67 µM and a GI50 (OVCAR-5 ovarian) of 0.977 µM. The TGI (OVCAR-5 ovarian) was > 100 µM, the GI50 (OVCAR-8 ovarian) was < 0.01 µM and the TGI (OVCAR-8 ovarian) was 3.68 µM. For the same molecule, the GI50 (PC-3 prostate) was 1.43 µM, the TGI (PC-3 prostate) was 28.8 µM and the GI50 (RPMI-8226 leukemia) was < 0.01 µM. The TGI (RPMI-8226 leukemia) was 24.5 µM, the GI50 (RXF 393 renal) was < 0.01 µM and the TGI (RXF 393 renal) was 0.932 µM. The GI50 (SF-268 CNS) was < 0.01 µM, the TGI (SF-268 CNS) was < 0.01 µM and the GI50 (SF-295 CNS) was 1.41 µM. For the same molecule, the TGI (SF-295 CNS) was 31.2 µM, the GI50 (SF-539 CNS) was < 0.01 µM and the TGI (SF-539 CNS) was 2.11 µM. For the same molecule, the GI50 (SK-MEL-28 melanoma) was 9.92 µM, the TGI (SK-MEL-28 melanoma) was 40.7 µM and the GI50 (SK-MEL-5 melanoma) was < 0.01 µM. For the same molecule, the TGI (SK-MEL-5 melanoma) was 18.5 µM, the GI50 (SK-OV-3 ovarian) was 0.459 µM and the TGI (SK-OV-3 ovarian) was 27 µM. The GI50 (SN12C renal) was 18.5 µM, the TGI (SN12C renal) was > 100 µM and the GI50 (SNB-19 CNS) was 2.8 µM. It also gave a TGI (SNB-19 CNS) of 39.8 µM, a GI50 (SNB-75 CNS) of 0.0544 µM and a TGI (SNB-75 CNS) of 13.3 µM. For the same molecule, the GI50 (SW-620 colon) was < 0.01 µM, the TGI (SW-620 colon) was 18.5 µM and the GI50 (T-47D breast) was 2.11 µM. The TGI (T-47D breast) was 34.8 µM, the GI50 (TK-10 renal) was 5.83 µM and the TGI (TK-10 renal) was 62.2 µM. The GI50 (U251 glioblastoma) was < 0.01 µM, the TGI (U251 glioblastoma) was 17.4 µM and the GI50 (UACC-257 melanoma) was 3.09 µM. The TGI (UACC-257 melanoma) was 25.4 µM, the GI50 (UACC-62 melanoma) was 0.0441 µM and the TGI (UACC-62 melanoma) was 8.83 µM. For the same molecule, the GI50 (UO-31 renal) was < 0.01 µM and the TGI (UO-31 renal) was 20 µM.
